We go through 3 molecules from publication PMC6266789 (Viruses, 2018).

Assay [1] has as its system rec A(H1N1)pdm09. More on the design: species or system C57BL/6 mice. To be noted: mouse, in vivo.
A further assay relates to influenza. More on the design: method as in earlier work. Particulars: infected IC young adults; cited from earlier work.
Assay [2] concerns rec A(H1N1)pdm09. More on the design: species or system C57BL/6 mice. To be noted: mouse, in vivo. This is another data set of the same source.
Assay [3] deals with NA of pH1N1 influenza virus recovered from lungs of IS mice. Format: biochemical, influenza A(H1N1)pdm09. Particulars: read-out: NAI Assay (Oseltamivir) Mean IC50.
For assay [4], the system named is rec A(H1N1)pdm09. Particulars: mouse, in vivo.
For assay [5], the system named is rec A(H1N1)pdm09. Set-up: species or system C57BL/6 mice. Particulars: mouse, in vivo. The source holds these as a separate data set.
Assay [6] relates to pH1N1 influenza virus recovered from lungs of IS mice. Description: microbe, parasite or virus in culture. It counts as cell-based.

The structures appear in SMILES notation. pIC50: −log10 of the molar value. “And” between values parts separate entries of the source, which are not always exact repeats. Equal entries are not always repeated. Where two headings read alike, the source gives them in different places.

For `CCOC(=O)C1=C[C@@H](OC(CC)CC)[C@H](NC(C)=O)[C@@H](N)C1` [Oseltamivir, oseltamivir], in the assay on rec A(H1N1)pdm09 [1], the “MDD (mean days of death)” value was 14.7, the “body weight losses over a 21-day period” value was “reduced” and the survival rate was 50%. For the same molecule, the “MDD (mean days of death)” value with rec A(H1N1)pdm09 [1] (20 mg/kg) was 13 and 16.6. Also, the “nasal wash levels of IL-6, TNF-α and IFN-γ” value in the assay on influenza is listed as “reduced”. Besides, the “levels of IL-6, TNF-α and IFN-γ after treatment” value in the assay with rec A(H1N1)pdm09 [2] is given as “not reduced”. Besides, in assay [3], the pIC50 is 9.22 and 9.10.

For the molecule `O=P1(N(CCCl)CCCl)NCCCO1` (stereo not drawn) [CP, cyclophosphamide], in the assay with rec A(H1N1)pdm09 [4], the “development of antibodies (microneutralization)” value is “none of them developed antibodies”.

Regarding `NC(=O)c1nc(F)cnc1O` [Favipiravir, 6-fluoro-3-hydroxy-2-pyrazinecarboxamide], the “LVTs vs non-treated and oseltamivir-treated mice” value with rec A(H1N1)pdm09 [5] was “statistically lower”. In addition, the “MDD (mean days of death)” value was 18 in the assay on rec A(H1N1)pdm09 [1]; 13 and 16.6 in the assay on rec A(H1N1)pdm09 [1] (20 mg/kg). Further, the “body weight losses over a 21-day period” value in the assay with rec A(H1N1)pdm09 [1] is given as “reduced”. In addition, the “decrease of mortality compared to the non-treated group” value with rec A(H1N1)pdm09 [1] amounted to 50%. Besides, the survival rate with rec A(H1N1)pdm09 [1] was 50%. For the same molecule, the pIC50 in assay [6] (read-out: PRA Assay (Favipiravir) IC50; virus from IS mice treated with oseltamivir 20 mg/kg + favipiravir 20 mg/kg BID, day 15; individual mice; Table 1) is 4.85; in assay [6] (unidentified influenza virus, in Mus musculus, 288 h, virus from not treated IS mice, day 12; individual mice; Table 1 (exp 2); read-out: PRA Assay (Favipiravir) IC50) it was 4.86; in assay [6] (unidentified influenza virus, in Mus musculus, 360 h, virus from not treated IS mice, day 15; individual mice; Table 2 (exp 3); read-out: PRA Assay (Favipiravir) IC50), 4.94; in assay [6] (virus from IS mice treated with favipiravir 20 mg/kg BID, day 15; individual mice; Table 1; read-out: PRA Assay (Favipiravir) IC50), 4.97 and 4.89; in assay [6] (virus from IS mice treated with favipiravir 50 mg/kg BID, day 15; individual mice; Table 2; read-out: PRA Assay (Favipiravir) IC50), 4.91; in assay [6] (virus from IS mice treated with oseltamivir 20 mg/kg + favipiravir 20 mg/kg BID, day 15; individual mice; Table 1; read-out: PRA Assay (Favipiravir) IC50), 4.89. In addition, the pIC50 in assay [6] (virus from IS mice treated with oseltamivir 20 mg/kg + favipiravir 50 mg/kg BID, day 15; individual mice; Table 2; read-out: PRA Assay (Favipiravir) IC50) is 4.94 and 4.98 and 5.02; in assay [6] (virus from not treated IS mice, day 12; individual mice; Table 1 (exp 2); read-out: PRA Assay (Favipiravir) IC50), 4.98 and 5.02 and 5.00; in assay [6] (virus from not treated IS mice, day 15; individual mice; Table 2 (exp 3); read-out: PRA Assay (Favipiravir) IC50), 5.07. The “favipiravir susceptibility phenotype by PRA” value in assay [6] (viruses recovered on day 15 p.i., exp 3) is “did not show a resistant phenotype”.
